The source of these data is patent US11117900B2 (Vertex Pharmaceuticals Incorporated, priority 2012, dated 2021).

The subject of the assay is HCT116 colorectal cancer cells. Nature of the assay: Cisplatin sensitization assay (96 h MTS cell viability).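 Note: compound concentration needed to lower the IC50 of Cisplatin alone by a set fold.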 It is filed as cell-based. As to conditions: Cisplatin sensitization value. The gist of the method:
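The MTS viability read, after 1 h with reagent, followed 96 h of co-treatment at 37° C. in 5% CO2. Both compound and cisplatin were titrated 2-fold from a 10 μM top final concentration in a complete concentration matrix on HCT116 cells. Scores +++/++/+ reflect cisplatin sensitization value ranges.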

As to `COCCn1cncc1-c1ccncc1NC(=O)c1c(N)nn2cc(F)cnc12` [I-C-83, 2-amino-6-fluoro-N-(4-(1-(2-methoxyethyl)-1H-imidazol-5-yl)pyridin-3-yl)pyrazolo[1,5-a]pyrimidine-3-carboxamide], the “Cisplatin Sensitization Assay” value is listed as “++ (Compounds with a Cisplatin sensitization value >0.02 μM but <0.2 μM are marked with “++.”)”.

As for `CNCCCN(C)C(=O)C1CCN(c2c(F)cncc2NC(=O)c2c(N)nn3cc(F)cnc23)CC1` [I-G-17], the “Cisplatin Sensitization Assay” value is recorded as “+ (Compounds with a Cisplatin sensitization value >0.2 μM but <5 μM are marked with “+.”)”.

Take `Nc1nn2cc(F)cnc2c1C(=O)Nc1cncc(F)c1N1CCN(C(=O)C2COC2)CC1` [I-N-278, 2-amino-6-fluoro-N-(5-fluoro-4-(4-(oxetane-3-carbonyl)piperazin-1-yl)pyridin-3-yl)pyrazolo[1,5-a]pyrimidine-3-carboxamide]: the “Cisplatin Sensitization Assay” value is on record as “+++ (Compounds with a Cisplatin sensitization value of <0.02 μM are marked with “+++.”)”.

For `CC1(C)CN(c2ccncc2NC(=O)c2c(N)nn3cc(F)cnc23)CCS1(=O)=O` [I-N-252, 2-amino-N-(4-(2,2-dimethyl-1,1-dioxidothiomorpholino)pyridin-3-yl)-6-fluoropyrazolo[1,5-a]pyrimidine-3-carboxamide], the “Cisplatin Sensitization Assay” value is recorded as “+++ (Compounds with a Cisplatin sensitization value of <0.02 μM are marked with “+++.”)”.

As for `Nc1nn2cc(F)cnc2c1C(=O)Nc1cncc(F)c1N1CCC(CN2CCCC2=O)CC1` [I-N-213, 2-amino-6-fluoro-N-(5-fluoro-4-(4-((2-oxopyrrolidin-1-yl)methyl)piperidin-1-yl)pyridin-3-yl)pyrazolo[1,5-a]pyrimidine-3-carboxamide], the “Cisplatin Sensitization Assay” value is listed as “+++ (Compounds with a Cisplatin sensitization value of <0.02 μM are marked with “+++.”)”.

With `CN1CCN(C(=O)c2cnc(-c3ccncc3NC(=O)c3c(N)nn4cc(F)cnc34)c(Cl)c2)CC1` [I-C-46, 2-amino-N-(3-chloro-5-(4-methylpiperazine-1-carbonyl)-[2,4′-bipyridin]-3′-yl)-6-fluoropyrazolo[1,5-a]pyrimidine-3-carboxamide], the “Cisplatin Sensitization Assay” value is on record as “+ (Compounds with a Cisplatin sensitization value >0.2 μM but <5 μM are marked with “+.”)”.

Turning to `Nc1nn2cc(F)cnc2c1C(=O)Nc1cncc(Cl)c1N1CCCC1` [I-N-281, 2-amino-N-(5-chloro-4-(pyrrolidin-1-yl)pyridin-3-yl)-6-fluoropyrazolo[1,5-a]pyrimidine-3-carboxamide], the “Cisplatin Sensitization Assay” value was “+++ (Compounds with a Cisplatin sensitization value of <0.02 μM are marked with “+++.”)”.

As to `Nc1nn2cc(F)cnc2c1C(=O)Nc1cncc(F)c1N1CCN2C(=O)CCC[C@@H]2C1` [I-N-280, (R)-2-amino-6-fluoro-N-(5-fluoro-4-(6-oxohexahydro-1H-pyrido[1,2-a]pyrazin-2(6H)-yl)pyridin-3-yl)pyrazolo[1,5-a]pyrimidine-3-carboxamide], the “Cisplatin Sensitization Assay” value was “+++ (Compounds with a Cisplatin sensitization value of <0.02 μM are marked with “+++.”)”.

With `Nc1nn2cc(F)cnc2c1C(=O)Nc1cncc(C2CC2)c1N1CCN([C@H]2CCOC2)CC1` [I-N-120, (S)-2-amino-N-(5-cyclopropyl-4-(4-(tetrahydrofuran-3-yl)piperazin-1-yl)pyridin-3-yl)-6-fluoropyrazolo[1,5-a]pyrimidine-3-carboxamide], the “Cisplatin Sensitization Assay” value is “+++ (Compounds with a Cisplatin sensitization value of <0.02 μM are marked with “+++.”)”.

For the molecule `Cc1cncc(NC(=O)c2c(N)nn3cc(F)cnc23)c1N1CCN(C2CCOCC2)CC1` [I-N-123, 2-amino-6-fluoro-N-(5-methyl-4-(4-(tetrahydro-2H-pyran-4-yl)piperazin-1-yl)pyridin-3-yl)pyrazolo[1,5-a]pyrimidine-3-carboxamide], the “Cisplatin Sensitization Assay” value is “++ (Compounds with a Cisplatin sensitization value >0.02 μM but <0.2 μM are marked with “++.”)”.

Consider `Cc1ncnn1-c1c(F)cncc1NC(=O)c1c(N)nn2cc(F)cnc12` [I-N-242, 2-amino-6-fluoro-N-(5-fluoro-4-(5-methyl-1H-1,2,4-triazol-1-yl)pyridin-3-yl)pyrazolo[1,5-a]pyrimidine-3-carboxamide], for which the “Cisplatin Sensitization Assay” value is “+ (Compounds with a Cisplatin sensitization value >0.2 μM but <5 μM are marked with “+.”)”.

`Cc1ccnnc1-c1ccncc1NC(=O)c1c(N)nn2cc(F)cnc12` [I-C-33, 2-amino-6-fluoro-N-(4-(4-methylpyridazin-3-yl)pyridin-3-yl)pyrazolo[1,5-a]pyrimidine-3-carboxamide]: the “Cisplatin Sensitization Assay” value is listed as “+ (Compounds with a Cisplatin sensitization value >0.2 μM but <5 μM are marked with “+.”)”.

For `CN1CCN(C(=O)C2CCN(c3c(F)cncc3NC(=O)c3c(N)nn4cc(F)cnc34)CC2)CC12CC2` [I-G-38, 2-amino-6-fluoro-N-(5-fluoro-4-(4-(4-methyl-4,7-diazaspiro[2.5]octane-7-carbonyl)piperidin-1-yl)pyridin-3-yl)pyrazolo[1,5-a]pyrimidine-3-carboxamide], the “Cisplatin Sensitization Assay” value was “+++ (Compounds with a Cisplatin sensitization value of <0.02 μM are marked with “+++.”)”.

Consider `Nc1nn2cc(F)cnc2c1C(=O)Nc1cnccc1OC1CCOC1` (racemic) [I-O-15, (R,S)-2-amino-6-fluoro-N-(4-((tetrahydrofuran-3-yl)oxy)pyridin-3-yl)pyrazolo[1,5-a]pyrimidine-3-carboxamide], for which the “Cisplatin Sensitization Assay” value is given as “+++ (Compounds with a Cisplatin sensitization value of <0.02 μM are marked with “+++.”)”.

As to `CN1CCN(c2c(F)cncc2NC(=O)c2c(N)nn3cc(C(C)(C)C#N)cnc23)CC1` [I-N-138, 2-amino-6-(2-cyanopropan-2-yl)-N-(5-fluoro-4-(4-methylpiperazin-1-yl)pyridin-3-yl)pyrazolo[1,5-a]pyrimidine-3-carboxamide], the “Cisplatin Sensitization Assay” value is given as “++ (Compounds with a Cisplatin sensitization value >0.02 μM but <0.2 μM are marked with “++.”)”.

Consider `Nc1nn2cc(F)cnc2c1C(=O)Nc1cnccc1OC1CCS(=O)(=O)CC1` [I-O-45, 2-amino-N-(4-((1,1-dioxidotetrahydro-2H-thiopyran-4-yl)oxy)pyridin-3-yl)-6-fluoropyrazolo[1,5-a]pyrimidine-3-carboxamide], for which the “Cisplatin Sensitization Assay” value is “+++ (Compounds with a Cisplatin sensitization value of <0.02 μM are marked with “+++.”)”.

Regarding `Cc1ncnn1-c1ccncc1NC(=O)c1c(N)nn2cc(F)cnc12` [I-N-162, 2-amino-6-fluoro-N-(4-(5-methyl-1H-1,2,4-triazol-1-yl)pyridin-3-yl)pyrazolo[1,5-a]pyrimidine-3-carboxamide], the “Cisplatin Sensitization Assay” value is “++ (Compounds with a Cisplatin sensitization value >0.02 μM but <0.2 μM are marked with “++.”)”.

In the case of `CN(C)C1CCCN(c2ccncc2NC(=O)c2c(N)nn3cc(Cl)cnc23)C1` (stereo not shown) [I-N-40, 2-amino-6-chloro-N-(4-(3-(dimethylamino)piperidin-1-yl)pyridin-3-yl)pyrazolo[1,5-a]pyrimidine-3-carboxamide], the “Cisplatin Sensitization Assay” value is “++ (Compounds with a Cisplatin sensitization value >0.02 μM but <0.2 μM are marked with “++.”)”.

As to `Nc1nn2cc(F)cnc2c1C(=O)Nc1cncc(F)c1C1=CCN(C2COC2)CC1` [I-C-12, 2-amino-6-fluoro-N-(5-fluoro-1′-(oxetan-3-yl)-1′,2′,3′,6′-tetrahydro-[4,4′-bipyridin]-3-yl)pyrazolo[1,5-a]pyrimidine-3-carboxamide], the “Cisplatin Sensitization Assay” value was “+++ (Compounds with a Cisplatin sensitization value of <0.02 μM are marked with “+++.”)”.

`Nc1nn2cc(F)cnc2c1C(=O)Nc1cncc(Cl)c1N1CCC(O)C1` (stereo not shown) [I-N-284, 2-amino-N-(5-chloro-4-(3-hydroxypyrrolidin-1-yl)pyridin-3-yl)-6-fluoropyrazolo[1,5-a]pyrimidine-3-carboxamide]: the “Cisplatin Sensitization Assay” value is “+++ (Compounds with a Cisplatin sensitization value of <0.02 μM are marked with “+++.”)”.

Turning to `Nc1nn2cc(F)cnc2c1C(=O)Nc1cncc(F)c1N1CCC(C(=O)N2CCN(C3COC3)CC2)CC1` [I-G-32, 2-amino-6-fluoro-N-[5-fluoro-4-[4-[4-(oxetan-3-yl)piperazine-1-carbonyl]-1-piperidyl]-3-pyridyl]pyrazolo[1,5-a]pyrimidine-3-carboxamide], the “Cisplatin Sensitization Assay” value is “+++ (Compounds with a Cisplatin sensitization value of <0.02 μM are marked with “+++.”)”.

Regarding `CC1(C)CCCN1c1ccncc1NC(=O)c1c(N)nn2cc(F)cnc12` [I-N-220, 2-amino-N-(4-(2,2-dimethylpyrrolidin-1-yl)pyridin-3-yl)-6-fluoropyrazolo[1,5-a]pyrimidine-3-carboxamide], the “Cisplatin Sensitization Assay” value is “++ (Compounds with a Cisplatin sensitization value >0.02 μM but <0.2 μM are marked with “++.”)”.

Turning to `Nc1nn2cc(F)cnc2c1C(=O)Nc1cncc(F)c1N1CCN([C@H]2CCOC2)CC1` [I-N-125, (S)-2-amino-6-fluoro-N-(5-fluoro-4-(4-(tetrahydrofuran-3-yl)piperazin-1-yl)pyridin-3-yl)pyrazolo[1,5-a]pyrimidine-3-carboxamide], the “Cisplatin Sensitization Assay” value was “+++ (Compounds with a Cisplatin sensitization value of <0.02 μM are marked with “+++.”)”.

For `CN(C)C(=O)[C@H]1CC[C@@H](Oc2ccncc2NC(=O)c2c(N)nn3cc(F)cnc23)CC1` [I-O-17, 2-amino-N-(4-(((1s,4s)-4-(dimethylcarbamoyl)cyclohexyl)oxy)pyridin-3-yl)-6-fluoropyrazolo[1,5-a]pyrimidine-3-carboxamide], the “Cisplatin Sensitization Assay” value is reported as “+++ (Compounds with a Cisplatin sensitization value of <0.02 μM are marked with “+++.”)”.

For `Cn1ccc2cncc(NC(=O)c3c(N)nn4cc(F)cnc34)c21` [I-N-259, 2-amino-6-fluoro-N-(1-methyl-1H-pyrrolo[3,2-c]pyridin-7-yl)pyrazolo[1,5-a]pyrimidine-3-carboxamide], the “Cisplatin Sensitization Assay” value is “+ (Compounds with a Cisplatin sensitization value >0.2 μM but <5 μM are marked with “+.”)”.
